The record followed here is patent US20250042891A1, “Compound containing structure of a heteroaromatic ring, pharmaceutical composition thereof and application thereof” (SHANGHAI YINGLI PHARMACEUTICAL CO., LTD, priority 2023, published 2025).

In experiment [1] the target is PARG (389-976) (Homo sapiens (Human), UniProt Q86W56). In words: PARG enzyme inhibition assay (TR-FRET). The class given is biochemical. How it is done: PARG in vitro assays were conducted in standard 384-well plates in a total volume of 15 μL. 5 μL of PARG (389-976) (manufactured by Chempartner Chemical Co., Ltd.) in buffer (50 mM Tris-HCL 7.5, 30 mM KCl, 1 mM EDTA, 3 mM DTT, tween-20 0.01%, BSA 0.025%) was added at a final concentration of 1.5 pM to the 384-well plates containing the compounds to be tested, which was incubated for 30 min at room temperature. To the above mixture was added 5 μL Bio PARylated His-TEV-PARP1(2-1014) substrate (manufactured by Chempartner Chemical Co., Ltd.) at a final concentration of 12 nM, after addition, the resulting mixture was incubated for 30 minutes at room temperature. Then to the mixture was added detection reagent (5 μL) which was buffered with 50 mM Tris-HCL 7.5, 30 mM KCl, 1 mM EDTA, 3 mM DTT, tween-20 0.01%, BSA 0.025%, and consisted of 3 μM of compound PDD00017273 and 9 nM Mab anti-6HIS XL665 (Cisbio: 61HISXLA) and 0.9 nM streptavidin affinity terbium cryptate (Cisbio:610SATLA), all at 3× working concentrations (final concentrations of 1 μM, 3 nM and 0.3 nM, respectively). After 120 min incubation in the dark at room temperature, TR-FRET signals were measured at Ex 340 and Em 665 and Em 615. The ratio for each well was calculated as Em 665/Em 615 and the compound inhibition rate was calculated based on the obtained data.
(In general: Time-resolved FRET reads energy transfer from a long-lived donor to a nearby acceptor.)

For experiment [2], the system named is HCC1395. In words: CTG assay for proliferation inhibition of cell lines. The class given is cell-based. The conditions noted are these: HCC1395, 7 days, CellTiter Glo. As to the method:
(§1) The assay was conducted on either 384-well plates or 96-well plates. The procedures are as follows:
(§2) The cell suspensions were added to 384- or 96-well plates (384-well plate: 50 μL; 96-well plate: 100 μL) except for peripheral wells. The plates were incubated in a carbon dioxide incubator overnight, HCC1395, HCC1428 and NCI-H460 were placed in a carbon dioxide incubator of 5%, […] overnight. Prepared compounds (10 concentration gradients by serial 3-fold dilution) were added to the wells using the HPD300 micro-dosing instrument. The cell plates were incubated in a carbon dioxide incubator for 7 days. HCC1395, HCC1428 and NCI-H460 were incubated in a 5%, 37° CO2 incubator. On the day of plate measurement, 384- or 96-well plates were first equilibrated at room temperature for 10-30 minutes, then to the 384- or 96-well plate was added CellTiter Glo reagent (384-well plate: 25 μL; 96-well plate: 100 μL), shaken for 10 minutes away from light, and incubated for 10 minutes. The incubated plates were placed into Victor NIVO reader plates, and the pharmacodynamic inhibition curves were plotted and IC50 values were calculated using XLFit.

In experiment [3] the test system is HCC1428. The experiment is described as above. The format is cell-based. The conditions noted are these: HCC1428, 7 days, CellTiter Glo. As to the method:
as §1, §2

Experiment [4] relates to NCI-H460. The experiment is described as above. The format is cell-based. The following applies: NCI-H460, 7 days, CellTiter Glo. How it is done: as §1, §2
Where [5] appears, read: class symbol, Bio PARylated His-TEV-PARP1 substrate, TR-FRET.
The mark [6] stands for this setting: numeric value in parentheses under the class symbol.

Chain of PARG (389-976) (Q86W56 389-976): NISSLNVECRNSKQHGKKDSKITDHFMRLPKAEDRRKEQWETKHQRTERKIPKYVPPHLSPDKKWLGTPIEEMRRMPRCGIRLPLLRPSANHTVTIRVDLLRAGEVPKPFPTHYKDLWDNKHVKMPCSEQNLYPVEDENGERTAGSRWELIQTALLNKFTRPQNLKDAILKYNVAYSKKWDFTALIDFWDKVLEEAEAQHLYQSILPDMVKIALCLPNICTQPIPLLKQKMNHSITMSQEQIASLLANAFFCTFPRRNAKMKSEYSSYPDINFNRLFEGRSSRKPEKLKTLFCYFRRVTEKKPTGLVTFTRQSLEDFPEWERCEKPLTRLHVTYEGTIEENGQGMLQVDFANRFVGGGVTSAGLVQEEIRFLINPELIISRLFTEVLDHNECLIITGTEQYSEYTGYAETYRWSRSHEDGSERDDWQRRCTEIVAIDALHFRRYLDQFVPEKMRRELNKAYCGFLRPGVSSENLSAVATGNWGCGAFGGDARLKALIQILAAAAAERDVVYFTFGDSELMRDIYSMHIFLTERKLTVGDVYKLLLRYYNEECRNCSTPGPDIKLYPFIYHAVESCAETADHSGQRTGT

As a reminder, the IC50 is the concentration needed to halve the response being measured. Consider `Cn1nc(-c2nnc(C(F)F)s2)c2cc(S(=O)(=O)NC3(C#N)CC3)cc(C3=CCN(S(=O)(=O)C4CCOCC4)CC3)c21` [Compound 5], for which the IC50 is less than 1 nM in experiment [1] (setting [5]); 0.33 nM in experiment [1] (setting [6]); 0.222 µM in experiment [2]; 0.132 µM in experiment [3]; 0.183 µM in experiment [4].

On to `CC(C)S(=O)(=O)c1ccc(-c2cc(S(=O)(=O)NC3(C#N)CC3)cc3c(-c4nnc(C(F)F)s4)nn(C)c23)cn1` [Compound 24], for which the IC50 in experiment [1] (setting [5]) was less than 1 nM; in experiment [2], 0.65 µM; in experiment [3] it was 0.578 µM; in experiment [4], 0.493 µM.

For the compound `CC(C)S(=O)(=O)N1CC=C(c2cc(S(=O)(=O)NC3(C#N)CC3)cc3c(-c4nnc(C(F)(F)F)s4)nn(Cc4ccncc4)c23)CC1` [Compound 59], the IC50 in experiment [1] (setting [5]) is 1 to 10 nM; in experiment [2] (Homo sapiens, 168 h), 0.357 µM; in experiment [4] (Homo sapiens, 168 h) it was 0.27 µM.

On to `Cn1nc(-c2nnc(C(F)F)s2)c2cc(S(=O)(=O)NC3(C#N)CC3)cc(C3=CCN(S(=O)(=O)C4COC4)CC3)c21` [Compound 22], for which the IC50 in experiment [1] (setting [5]) was less than 1 nM; in experiment [2], 0.605 µM; in experiment [3], 1.09 µM; in experiment [4], 0.714 µM.

In the case of `Cn1nc(-c2nnc(C(F)F)s2)c2cc(S(=O)(=O)NC3(C#N)CC3)cc(C3=CCN(S(=O)(=O)C4CNC4)CC3)c21` [Compound 20], the IC50 in experiment [1] (setting [5]) is less than 1 nM; in experiment [1] (setting [6]), 0.06 nM; in experiment [2], 3.95 µM; in experiment [3], 3.02 µM; in experiment [4], 2.81 µM.

`CC(C)S(=O)(=O)N1CC=C(c2cc(S(=O)(=O)NC3(C#N)CC3)cc3c(-c4nnc(C(F)F)s4)nn(C)c23)C(F)C1` (stereo not drawn) [Compound 69]: the IC50 in experiment [1] (setting [5]) is less than 1 nM; in experiment [2] it was 0.296 µM; in experiment [4] it was 0.292 µM.

For the compound `Cn1nc(-c2nnc(C(F)F)s2)c2cc(S(=O)(=O)NC3(C#N)CC3)cc(C3=CCN(S(=O)(=O)C4CCC4)CC3)c21` [Compound 12], the IC50 in experiment [1] (setting [5]) was less than 1 nM; in experiment [2] (Homo sapiens, 168 h), 0.169 µM; in experiment [3] (Homo sapiens, 168 h), 0.151 µM; in experiment [4] (Homo sapiens, 168 h), 0.148 µM.

With `CC(C)[S+]([O-])C1CC=C(c2cc(S(=O)(=O)NC3(C#N)CC3)cc3c(-c4nnc(C(F)F)s4)nn(C)c23)CC1` (stereo not drawn) [Compound 30], the IC50 is less than 1 nM in experiment [1] (setting [5]); 0.61 nM in experiment [1] (setting [6]); 0.787 µM in experiment [2]; 0.45 µM in experiment [3]; 0.656 µM in experiment [4].

For the compound `CC(C)S(=O)(=O)N1CC=C(c2cc(S(=O)(=O)NC3(C#N)CC3)cc3c(-c4nnc(C(F)(F)F)s4)nn(C)c23)CC1` [Compound 15], the IC50 in experiment [1] (setting [5]) is less than 1 nM; in experiment [2] it was 0.0955 µM; in experiment [3], 0.117 µM; in experiment [4], 0.0561 µM.

For the compound `CC(C)[S+]([O-])N1CC=C(c2cc(S(=O)(=O)NC3(C#N)CC3)cc3c(-c4nnc(C(F)F)s4)nn(C)c23)CC1` (stereo not drawn) [Compound 25], the IC50 in experiment [1] (setting [5]) is less than 1 nM; in experiment [1] (setting [6]), 0.34 nM; in experiment [2] it was 0.206 µM; in experiment [3], 0.152 µM; in experiment [4], 0.185 µM.

As for `CC(C)S(=O)(=O)N1CC=C(c2cc(S(=O)(=O)NC3(C#N)CC3)cc3c(-c4ccc(C(F)F)nn4)nn(C)c23)CC1` [Compound 78], the IC50 was 1 to 10 nM in experiment [1] (setting [5]), 0.5 µM in experiment [2], 0.532 µM in experiment [3] and 0.426 µM in experiment [4].

In the case of `CC(C)S(=O)(=O)N1CC=C(c2cc(S(=O)(=O)NC3(C#N)CC3)cc3c(-c4nnc(C(F)F)s4)n(CC4CC4)nc23)CC1` [Compound 44], the IC50 in experiment [2] came to 1.05 µM; in experiment [4] it was 1.07 µM.

Take `CC(C)S(=O)(=O)N1CCN(c2cc(S(=O)(=O)NC3(C#N)CC3)cc3c(-c4nnc(C(F)(F)F)s4)nn(C)c23)CC1` [Compound 35]: the IC50 in experiment [1] (setting [5]) is less than 1 nM; in experiment [2], 0.284 µM; in experiment [3] it was 0.698 µM; in experiment [4], 0.162 µM.

As to `CC(C)S(=N)(=O)N1CC=C(c2cc(S(=O)(=O)NC3(C#N)CC3)cc3c(-c4nnc(C(F)F)s4)nn(C)c23)CC1` (stereo not drawn) [Compound 33], the IC50 is less than 1 nM in experiment [1] (setting [5]), 0.691 µM in experiment [2], 0.616 µM in experiment [3] and 0.5 µM in experiment [4].

As for `CC(C)[S+]([O-])c1ccc(-c2cc(S(=O)(=O)NC3(C#N)CC3)cc3c(-c4nnc(C(F)(F)F)s4)nn(C)c23)nc1` (stereo not drawn) [Compound 48], the IC50 in experiment [1] (setting [5]) is 10 to 100 nM; in experiment [2] it was 2.04 µM; in experiment [4] it was 2.05 µM.

Consider `CC(C)S(=O)(=O)N1CCC2(c3cc(S(=O)(=O)NC4(C#N)CC4)cc4c(-c5nnc(C(F)F)s5)nn(C)c34)OC2C1` (stereo not drawn) [Compound 38], for which the IC50 was less than 1 nM in experiment [1] (setting [5]), 0.432 µM in experiment [2], 0.4 µM in experiment [3] and 0.366 µM in experiment [4].

`CC(C)S(=O)(=O)C1CC=C(c2cc(S(=O)(=O)NC3(C#N)CC3)cc3c(-c4nnc(C(F)F)s4)nn(C)c23)CC1` (stereo not drawn) [Compound 31]: the IC50 in experiment [1] (setting [5]) was 1 to 10 nM; in experiment [1] (setting [6]) it was 1.14 nM; in experiment [2], 0.641 µM; in experiment [3], 0.507 µM; in experiment [4], 0.457 µM.

On to `Cn1nc(-c2nnc(C(F)F)s2)c2cc(S(=O)(=O)NC3(C#N)CC3)cc(C3=CCN(S(=O)(=O)C4(C)CC4)CC3)c21` [Compound 14], for which the IC50 is less than 1 nM in experiment [1] (setting [5]); 0.126 µM in experiment [2] (Homo sapiens, 168 h); 0.399 µM in experiment [3] (Homo sapiens, 168 h); 0.122 µM in experiment [4] (Homo sapiens, 168 h).

Regarding `CC(C)S(=O)(=O)c1ccc(-c2cc(S(=O)(=O)NC3(C#N)CC3)cc3c(-c4nnc(C(F)F)s4)nn(C)c23)cc1` [Compound 9], the IC50 was 1 to 10 nM in experiment [1] (setting [5]), 0.197 µM in experiment [2], 1.17 µM in experiment [3] and 0.147 µM in experiment [4].

For `COCC(C)S(=O)(=O)N1CC=C(c2cc(S(=O)(=O)NC3(C#N)CC3)cc3c(-c4nnc(C(F)F)s4)nn(C)c23)CC1` (stereo not drawn) [Compound 23], the IC50 in experiment [1] (setting [5]) was less than 1 nM; in experiment [2] it was 0.183 µM; in experiment [3], 0.466 µM; in experiment [4] it was 0.124 µM.

`CC(C)S(=O)(=O)N1CCC(c2cc(S(=O)(=O)NC3(C#N)CC3)cc3c(-c4nnc(C(F)F)s4)nn(C)c23)=C(C=O)C1` [Compound 70]: the IC50 in experiment [1] (setting [5]) is less than 1 nM; in experiment [2], 0.27 µM; in experiment [3], 0.343 µM.

`CC(C)S(=O)(=O)N1CCC(c2cc(S(=O)(=O)NC3(C#N)CC3)cc3c(-c4nnc(C(F)(F)F)s4)nn(C)c23)=C(C(N)=O)C1` [Compound 55]: the figures for the IC50 in experiment [1] (setting [5]), in experiment [2] and in experiment [3] were less than 1 nM, 0.836 µM and 0.208 µM, respectively.

Regarding `CC(C)S(=O)(=O)N1CC=C(c2cc(S(=O)(=O)NC3(C#N)CC3)cc3c(-c4nnc(C(F)F)s4)nn(CCN(C)C)c23)CC1` [Compound 26], the IC50 in experiment [1] (setting [5]) was less than 1 nM; in experiment [1] (setting [6]) it was 0.16 nM; in experiment [3], 0.0865 µM; in experiment [4] it was 0.139 µM.

As to `CC(C)S(=O)(=O)N1CCN(c2c(F)c(S(=O)(=O)NC3(C#N)CC3)cc3c(-c4nnc(C(F)(F)F)s4)nn(C)c23)CC1` [Compound 56], the IC50 in experiment [1] (setting [5]) is less than 1 nM; in experiment [2], 0.0475 µM; in experiment [3], 0.0472 µM.

Turning to `CC(C)S(=O)(=O)N1CC=C(c2cc(S(=O)(=O)NC3(C#N)CC3)cc3c(-c4noc(C(F)(F)F)n4)nn(C)c23)CC1` [Compound 53], the IC50 was less than 1 nM in experiment [1] (setting [5]), 0.392 µM in experiment [2] and 0.207 µM in experiment [3].

As for `CC(C)S(=O)(=O)N1Cc2cn(-c3cc(S(=O)(=O)NC4(C#N)CC4)cc4c(-c5nnc(C(F)F)s5)nn(C)c34)nc2C1` [Compound 52], the IC50 is 1 to 10 nM in experiment [1] (setting [5]), 1.38 µM in experiment [2] and 1.06 µM in experiment [3].

Regarding `CC(C)S(=O)(=O)N1CCC(c2cc(S(=O)(=O)NC3(C#N)CC3)cc3c(-c4nnc(C(F)(F)F)s4)nn(C)c23)=C(CO)C1` [Compound 73], the IC50 is less than 1 nM in experiment [1] (setting [5]), 0.0462 µM in experiment [2] and 0.0576 µM in experiment [3].
